Reference: US9757378B2, “Methods to modulate acute myeloid leukemia stem/progenitor cell expansion and/or differentiation” (UNIVERSITE DE MONTREAL, priority 2013, dated 2017)
Counter-ions that a name gives are not always drawn.

Columns and labels:
primary human AML cells [1] = assay: Primary screen: differentiation of primary human AML cells in vitro (CD34/CD15, HTS flow cytometry); details: for percent gated cells (viability): 2 μM (commercial libraries) or 1 μg/ml (IRIC); for % increase CD34+ (%) / % increase CD34+ (cell counts) / % increase CD34+CD15− (cell counts): compared to DMSO; for % increase CD34+CD15− (%): compared to DMSO ((compound − DMSO)/DMSO*100)
Experimental: AML cells were thawed in 37° C. water bath and 1:10 diluted in prewarmed Iscove's modified Dulbecco's medium (IMDM) containing 20% FBS and DNase 100 μg/ml. […] When compounds were added to the culture medium, final DMSO concentrations were 0.1% in all in vitro experiments and 0.01% when cultured cells were transplanted into NSG-mice.
Compounds were tested at 2 μM (commercial libraries) or 1 μg/ml (Medicinal Chemistry Facility, IRIC). […] For validation experiments AML cells were grown in 384-well plates with 3-8 replicates per condition.
Flow cytometry was performed on an LSR™ II cytometer equipped with an HTS-device (BD Bioscience, Primary and Secondary screens and in vitro validation experiments) or on a BD Canto™ II cytometer (BD Bioscience, Xenotransplantation and CellTrace Violet™ experiments). Cells were stained for 30 minutes at 4° C. protected from light if not otherwise indicated (CellTrace Violet™ staining). […] CD34 intensities in flow cytometry plots were set at high levels on day 0 to allow tracing of non-predictable decreases of intensities during 7 days in culture.

primary human AML cells [2] = assay: Secondary screen: dose response, five serial dilutions (CD34/CD15 flow cytometry); assay type: cell-based; set-up: key to 2ndary screen criteria fulfilled: 0 = no; 1 = yes; details: for 2ndary screen criteria fulfilled: ≧50% increase CD34+CD15− (%) and cell counts and ≧50% gated cells in at least one dose; for % increase CD34+CD15− (%) 2ndary screen / % increase CD34+CD15− (cell counts) 2ndary screen: at optimal concentration, compared to DMSO
Experimental: In the primary screen cells were plated in transparent 384-wellplates (Greiner, 781182) at a density of 5,000 cells in 50 μl final volume per well. Compounds were tested at 2 μM (commercial libraries) or 1 μg/ml (Medicinal Chemistry Facility, IRIC). […] For validation experiments AML cells were grown in 384-well plates with 3-8 replicates per condition.
Flow cytometry was performed on an LSR™ II cytometer equipped with an HTS-device (BD Bioscience, Primary and Secondary screens and in vitro validation experiments) or on a BD Canto™ II cytometer (BD Bioscience, Xenotransplantation and CellTrace Violet™ experiments). Cells were stained for 30 minutes at 4° C. protected from light if not otherwise indicated (CellTrace Violet™ staining). The following flow cytometry-antibodies were used: CD45 Pacific Blue (BioLegend 304029), CD33 PE (BD Bioscience 555450), CD34 APC (BD Bioscience 555824), CD3 FITC (BD Bioscience 555332), CD19 PE-Cy7 (BD Bioscience 557835), CD15 PE (BD Bioscience 555401), and anti-mouse CD45.1 APC-efluor 730 (eBioscience 47-0453-82). CD34 intensities in flow cytometry plots were set at high levels on day 0 to allow tracing of non-predictable decreases of intensities during 7 days in culture.

[3] = system: AhR target genes CYP1A1, CYP1B1 and AHRR; assay: AhR target gene expression by q-RT-PCR in AML cells; assay type: cell-based, human; details: SR1 500 nM; TCDD 0.1, 1, 10 nM; n=13 samples
Description: RNA was isolated from primary AML samples using Trizol® reagent according to the manufacturer's instructions (Invitrogen/Life Technologies) and reverse transcribed into cDNA using MMLV reverse transcriptase and random primers. 2× Fast Master Mix® containing primers described below and probes from the Universal Probe Library® (Roche Diagnostics) were used for q-RT-PCR reactions which were amplified in 2-3 technical replicates on an ABI 7900HT Fast Real-Time® PCR System (Applied Biosystems/Life Technologies). Analysis was done with SDS 2.2.2 software (Applied Biosystems/Life Technologies) using the comparative delta CT method with GAPDH as reference gene. The following primers and probes were used: GAPDH: 5′-[…]-3′ (forward, SEQ ID NO:7), 5′-[…]-3′ (reverse, SEQ ID NO:8), probe 60, CYP1A1: 5′-[…]-3′ (forward, SEQ ID NO:9), 5′-[…]-3′ (reverse, SEQ ID NO:10), probe 59, CYP1B1: 5′-[…]-3′ (forward, SEQ ID NO:11), 5′-[…]-3′ (reverse, SEQ ID NO:12), probe 20, AHRR: 5′-[…]-3′ (forward, SEQ ID NO:13), 5′-[…]-3′ (reverse, SEQ ID NO:14), probe 72, AHR: 5′-[…]-3′ (forward, SEQ ID NO:15), 5′-[…]-3′ (reverse, SEQ ID NO:16), probe 33.

[4] = system: primary human AML specimens; assay: Validation: 7-day serum-free culture of diverse AML specimens (CD34+CD15− cells); assay type: cell-based; details: 7-day culture
Experimental: The following flow cytometry-antibodies were used: […] Statistical analyses of all in vitro experiments were done using Graphpad Prism v 6.01. […] Normalized CD34^+CD15^- percentages (td7/t0) were analyzed by Wilcoxon matched pairs signed rank test. Bars and error bars represent means and standard deviations (SD), or standard errors of the mean (SEM), as specified. Extreme limiting dilution analysis software (Hu, […]: extreme limiting dilution analysis for comparing depleted and enriched populations in stem cell and other assays. Journal of immunological methods 347, 70-78 (2009); http://bioinf.wehi.edu.au/software/elda/) was used to estimate LSC frequencies with 95% confidence intervals. In cases where all mice were positive or negative, one-sided confidence intervals were calculated. Differences in LSC frequencies between culture conditions were analyzed by Chi-square test.

Compound | percent gated cells (viability) (primary human AML cells [1]) [%] | % increase CD34+ (%) (primary human AML cells [1]) | % increase CD34+ (cell counts) (primary human AML cells [1]) [%] | % increase CD34+CD15− (cell counts) (primary human AML cells [1]) [%] | % increase CD34+CD15− (%) (primary human AML cells [1]) | 2ndary screen criteria fulfilled (primary human AML cells [2]) | % increase CD34+CD15− (%) 2ndary screen (primary human AML cells [2]) [%] | % increase CD34+CD15− (cell counts) 2ndary screen (primary human AML cells [2]) [%] | upregulation of AhR target genes AHRR and CYP1A1 upon 24 h in vitro culture [3] | CD34+CD15− cell counts in secondary screenings (ranking) (primary human AML cells [2]; in words) | impact on CD34+CD15− cell numbers ([4]; vs DMSO, P<0.0001 paired t-test) | median CD34+CD15− percentage relative to uncultured cells ([4]; SR1 0.75-1 μM, C05 2 μM, DMSO 19% / 22%) [%]
N[C@@H]1C[C@H]1c1ccccc1 [UM0118428, Tranylcypromine hydrochloride] | 77.80 | 49.50 | −11.95 | −10.11 | 52.70 | 0 |  |  |  |  |  | 
COc1cccc2oc(-c3ccccc3)cc(=O)c12 [UM0113898, 5-Methoxyflavone] |  | 36.28 | 20.92 | 61.47 | 82.42 | 1 | 105.80 | 119.91 |  |  |  | 
O=C(Nc1ccc2c(c1)OCCO2)c1sc2ccccc2c1Cl [UM0045609, 3-chloro-N-(2,3-dihydro-1,4-benzodioxin-6-yl)-1-benzithiophene-2-carboxamide] |  | 46.63 | 56.89 | 109.14 | 94.85 | 1 | 204.83 | 198.60 |  |  |  | 
C[C@]12CC[C@H](O)C[C@H]1CC[C@@H]1[C@@H]2CC[C@]2(C)[C@@H](C3=CC(=O)OC3)[C@@H](O)C[C@]12O [UM0119342, Gitoxigenin] | 77.10 | 48.71 | −44.85 | −40.00 | 62.33 | 0 |  |  |  |  |  | 
Clc1cc2c(cc1Cl)Oc1cc(Cl)c(Cl)cc1O2 [TCDD, 2,3,7,8-Tetrachlorodibenzodioxin] |  |  |  |  |  |  |  |  | marginally further induced |  |  | 
O=c1cc(-c2ccccc2)oc2cc(O)cc(O)c12 [UM0118950, Chrysin] |  | 47.05 | 48.57 | 108.30 | 105.68 | 1 | 194.69 | 172.16 |  |  |  | 
COc1ccc(-c2cc(=O)c3c(O)cc(O)cc3o2)cc1O [UM0119400, Diosmetine] |  | 31.48 | −19.72 | 20.75 | 97.56 | 0 |  |  |  |  |  | 
COc1ccc(-c2oc3cc(O)cc(O)c3c(=O)c2O)cc1 [UM0119298, Kaempferide] | 82.40 | 42.31 | 25.55 | 75.15 | 98.71 | 1 | 105.80 | 114.93 |  |  |  | 
COc1c(O)cc2oc(-c3ccc(O)c(O)c3)cc(=O)c2c1O [UM0119305, 6-Methoxyluteolin] | 83.60 | 31.39 | −2.77 | 40.01 | 88.83 | 0 |  |  |  |  |  | 
COc1ccc(-c2coc3c(O)c(OC)ccc3c2=O)cc1 [UM0121179, Retusin 7-Methylether] | 82.10 | 58.87 | 59.80 | 125.38 | 124.10 | 1 | 218.84 | 199.22 |  |  |  | 
O=c1c(O)c(-c2ccc(O)cc2)oc2cc(O)cc(O)c12 [UM0118952, Kaempferol] | 78.90 | 26.34 | −2.29 | 44.57 | 87.18 | 0 |  |  |  |  |  | 
CO[C@H]1C[C@@H]2CC[C@@H](C)[C@@](O)(O2)C(=O)C(=O)N2CCCC[C@H]2C(=O)O[C@H]([C@H](C)C[C@@H]2CC[C@@H](O)[C@H](OC)C2)CC(=O)[C@H](C)/C=C(\C)[C@@H](O)[C@@H](OC)C(=O)[C@H](C)C[C@H](C)/C=C/C=C/C=C/1C [UM0119219, Rapamycin] | 72.30 | 27.40 | −57.86 | −44.01 | 68.93 | 0 |  |  |  |  |  | 
O[C@H]1[C@H]2[C@H](O)CCCN2C[C@H]1O [UM0119223, Swainsonine] | 81.90 | 30.00 | −43.81 | −22.20 | 79.57 | 0 |  |  |  |  |  | 
CCCCCCC(=O)CCCCCC/C=C/C[C@@H](O)[C@H](O)[C@@](N)(CO)C(=O)O [UM0119199, Myriocin] | 79.90 | 1.19 | −36.05 | 9.44 | 72.63 | 0 |  |  |  |  |  | 
CNC(=O)c1cc2c(cn1)[nH]c1ccccc12 [UM0119840, N-Methyl-beta-carboline-3-carboxamide] | 86.20 | 31.60 | 37.57 | 85.11 | 76.94 | 1 | 172.95 | 252.10 |  | highest | significant impact | 56
O=c1c2ccccc2oc2ccccc12 [UM0120986, Xanthone] | 81.40 | 34.82 | 28.81 | 86.26 | 94.85 | 0 |  |  |  |  |  | 
Benzalkonium chloride [UM0120664] |  | 45.92 | −73.74 | −57.89 | 133.07 | 0 |  |  |  |  |  | 
